Data: patent publication US20040167189A1, “Materials and methods for inhibiting Wip1” (The Government of the U.S.A., as Represented by the …, priority 2002, published 2004)
“And” between values parts separate entries of the source, which are not always exact repeats. Identical values can stand only once. Like-named read-outs stand apart in the source and are kept apart here.

T1: phosphoserine peptide substrate (LRRApSLG)
T1 chain: LRRASLG

B1: recombinant full-size human Wip1 enzyme with His-Tag on the NH2 terminus (protein)
chain: MAGLYSLGVSVFSDQGGRKYMEDVTQIVVEPEPTAEEKPSPRRSLSQPLPPRPSPAALPGGEVSGKGPAVAAREARDPLPDAGASPAPSRCCRRRSSVAFFAVCDGHGGREAAQFAREHLWGFIKKQKGFTSSEPAKVCAAIRKGFLACHLAMWKKLAEWPKTMTGLPSTSGTTASVVIIRGMKMYVAHVGDSGVVLGIQDDPKDDFVRAVEVTQDHKPELPKERERIEGLGGSVMNKSGVNRVVWKRPRLTHNGPVRRSTVIDQIPFLAVARALGDLWSYDFFSGEFVVSPEPDTSVHTLDPQKHKYIILGSDGLWNMIPPQDAISMCQDQEEKKYLMGEHGQSCAKMLVNRALGRWRQRMLRADNTSAIVICISPEVDNQGNFTNEDELYLNLTDSPSYNSQETCVMTPSPCSTPPVKSLEEDPWPRVNSKDHIPALVRSNAFSENFLEVSAEIARENVQGVVIPSKDPEPLEENCAKALTLRIHDSLNNSLPIGLVPTNSTNTVMDQKNLKMSTPGQMKAQEIERTPPTNFKRTLEESNSGPLMKKHRRNGLSRSSGAQPASLPTTSQRKNSVKLTMRRRLRGQKKIGNPLLHQHRKTVCVC

Assays:
[1] = molecular target: recombinant Wip1 (Homo sapiens, UniProt O15297); conditions: for relative effectiveness as Wip1 inhibitor (in words): at the concentration of 0.25 μM;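 on all read-outs here: recombinant His-tagged Wip1 dephosphorylating a phosphoserine peptide for 1 h at 30 °C, read by fluorescence quench (ex 560, em 590 nm), signal rising with dephosphorylation, DMSO-only reactions as control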
From the text: Phosphatase activity of Wip1 was monitored with IQ™ Phosphatase Assay Kit (Pierce, Rockford, Ill.). […] At the end of phosphatase reaction, the labeled peptide population contains a mixture of phosphorylated and nonphosphorylated peptide species. The iron-containing compound binds specifically to the phosphorylated peptide present and its fluorescence is quenched. The observed relative fluorescence units increase in proportion to the extent of dephosphorylation of the phosphopeptide. The standard phosphatase assay was performed by incubating 0.2 μg recombinant Wip1 in the buffer, containing 20 mM MOPS, pH 7.0, 20 mM MgCl2, and 30 μM of phosphoserine peptide substrate (LRRApSLG) at 30° C. for 1 hour. The reaction was terminated by addition of 60 μl IQ™ Working Solution. Fluorescent intensity was measured on the Fluorometer at 560/590 ex/em. Compounds (2 ml) from a chemical library of potential Wip1 inhibitors dissolved in 50% DMSO were added to fmal concentration of 10, 1, 0.5, or 0.2 μM. Control reactions contained only 6% DMSO.
Wip1 activity was measured in the presence of 1990 chemical compounds, 10 μM final concentration each.

[2] = test system: phosphatase PP2A
[3] = molecular target: T1, phosphoserine peptide substrate …
[4] = compound at 0.25 μm, DMSO control 740
[5] = compound at 0.5 μm, DMSO control 740
[6] = compound at 1 μm, DMSO control 725
[7] = compound at 10 μm, DMSO control 1400

| Molecule | Wip1 Activity [1, 4] | Wip1 Activity [1, 5] | Wip1 Activity [1, 6] | Wip1 Activity [1, 7] | other results |
| --- | --- | --- | --- | --- | --- |
| O=[N+]([O-])c1ccc(S(=O)(=O)Cc2ccccc2)c2nonc12 [Compound A] | 745 light units @ 590 nm | 725 light units @ 590 nm | 250 light units @ 590 nm | 0 light units @ 590 nm |  |
| O=C(O)C=Cc1ccc[c]([Sb](=[O])([OH])[OH])c1 [Compound B] | 740 light units @ 590 nm | 723 light units @ 590 nm | 575 light units @ 590 nm | 0 light units @ 590 nm |  |
| Nc1nc(Sc2ccc([N+](=O)[O-])c3nonc23)c2nc[nH]c2n1 [Compound C] | 745 light units @ 590 nm | 750 light units @ 590 nm | 610 light units @ 590 nm | 0 light units @ 590 nm |  |
| CN(C)CN1CSC(=S)N(CN(C)C)C1 [Compound D] | 750 light units @ 590 nm | 740 light units @ 590 nm | 595 light units @ 590 nm | 0 light units @ 590 nm |  |
| CC(=NN=C([S-])SCc1ccccc1)c1ccccn1.[Cl-].[Cu+2] [Compound F] | 740 light units @ 590 nm | 695 light units @ 590 nm | 100 light units @ 590 nm | 0 light units @ 590 nm |  |
| Nc1nc([S][Hg][c]2cc([N+](=O)[O-])ccc2O)c2ncn(C3OC(CO)C(O)C3O)c2n1 (centres unmarked) [Compound H] | 675 light units @ 590 nm | 690 light units @ 590 nm | 225 light units @ 590 nm | 0 light units @ 590 nm |  |
| O=C(O)c1c(Br)c(Br)c(Br)c(Br)c1C1c2ccc(O)cc2Oc2cc(O)ccc21 [Compound I] | 625 light units @ 590 nm | 710 light units @ 590 nm | 250 light units @ 590 nm | 0 light units @ 590 nm |  |
| O=C(O)c1cc[c]([Hg][S]c2ncnc3nc[nH]c23)cc1 [Compound K] | 630 light units @ 590 nm | 680 light units @ 590 nm | 300 light units @ 590 nm | 0 light units @ 590 nm |  |
| CC1=C(Br)C(=O)C(C)=C(Br)C1=O [Compound L] | 375 light units @ 590 nm | 220 light units @ 590 nm | 60 light units @ 590 nm | 0 light units @ 590 nm | activity of Wip1 in the presence of compound (in words) ([1]; 1 μM final concentration): nearly not detectable; Phosphatase Activity (Wip1) ([1]; Compound L at 1 μM final concentration, DMSO control 500): 5 light units @ 590 nm; relative effectiveness as Wip1 inhibitor (in words) [1]: most effective inhibitors; decrease of the activity of PP2A ([2]; 1 μM final concentration): 5%; Phosphatase Activity (PP2A) ([2]; Compound L at 1 μM final concentration, DMSO control 760): 690 light units @ 590 nm |
| Nc1cc[c]([Hg][S]c2nc(N)nc3c2ncn3C2OC(CO)C(O)C2O)cc1 (centres unmarked) [Compound M] | 525 light units @ 590 nm | 400 light units @ 590 nm | 145 light units @ 590 nm | 0 light units @ 590 nm | relative effectiveness as Wip1 inhibitor (in words) [1]: most effective inhibitors |
| O=C1C(Cl)=C(Nc2ccc(S(=O)(=O)Nc3ccccn3)cc2)C(=O)c2ccccc21 [Compound N] |  |  |  | 0 light units @ 590 nm | Wip1 Activity [1]: 645 light units @ 590 nm and 710 light units @ 590 nm and 550 light units @ 590 nm |
| B1 |  |  |  |  | Phosphatase Activity (light units @ 590 nm), DMSO control (light units @ 590 nm) [3]: 500; Wip1 Activity (light units @ 590 nm), DMSO control (light units @ 590 nm) [3]: 1400 and 725 and 740 |
